Patent publication US7138361B2, “Herbicidal heterocycles” (E. I. du Pont de Nemours and Company, priority 2000, dated 2006)

Assays:
Assay type in all cases: in vivo
[1] = test system: smallflower flatsedge (Cyperus difformis); assay: Test C flooded paddy test; details: for Flatsedge plant response rating: Flooded Paddy, scale 0 to 100, 0 no effect, 100 complete control; for Plant response rating, Flatsedge: scale 0 to 100 (0 no effect, 100 complete control)
Procedure, shortened: (§1)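 Each species was cultivated to 2 leaves in flooded paddy pots, then treated. After a greenhouse period of 12–14 days, the plants were scored visually relative to controls from 0 (no effect) to 100 (complete control).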

[2] = test system: duck salad (Heteranthera limosa); assay: Test C flooded paddy test; details: for Ducksalad plant response rating: Flooded Paddy, scale 0 to 100, 0 no effect, 100 complete control; for Plant response rating, Ducksalad: scale 0 to 100 (0 no effect, 100 complete control)
Procedure, shortened: as §1

rice (Oryza saliva) = assay: Test C flooded paddy test; details: for Rice plant response rating: Flooded Paddy, Rate 500 g/ha, scale 0 to 100, 0 no effect, 100 complete control; for Plant response rating, Rice: scale 0 to 100 (0 no effect, 100 complete control)
Procedure, shortened: as §1

[3] = test system: barnyardgrass (Echinochloa crus-galli); assay: Test C flooded paddy test; details: for Barnyardgrass plant response rating: Flooded Paddy, scale 0 to 100, 0 no effect, 100 complete control; for Plant response rating, Barnyardgrass: scale 0 to 100 (0 no effect, 100 complete control)
Procedure, shortened: as §1

[4] = test system: johnsongrass (Sorghum halepense); assay: Test C preemergence; details: for Plant response rating (0 to 100), Johnsongrass: Rate 500 g/ha, visual evaluation after 12 to 14 days
Procedure, shortened: (§2)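 Seeds are planted and treated before emergence; for the postemergence test, plants at 1- to 4-leaf stage (2–18 cm) receive the same formulation, a solvent blend containing surfactant. Plants stay in the greenhouse 12–14 days, then response is scored visually from 0 (none) to 100 (complete control).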

[5] = test system: woolly cupgrass (Eriochloa villosa); assay: Test C preemergence; details: for Plant response rating (0 to 100), Cupgrass, Woolly: Rate 500 g/ha, visual evaluation after 12 to 14 days
Procedure, shortened: as §2

[6] = test system: Surinam grass (Brachiaria decumbens); assay: Test C preemergence; details: for Plant response rating (0 to 100), Surinam grass: Rate 500 g/ha, visual evaluation after 12 to 14 days
Procedure, shortened: as §2

[7] = test system: lambsquarters (Chenopodium album); assay: Test C preemergence; details: for Plant response rating (0 to 100), Lambsquarters: Rate 500 g/ha, visual evaluation after 12 to 14 days
Procedure, shortened: as §2

[8] = test system: yellow nutsedge (Cyperus esculentus); assay: Test C preemergence; details: for Plant response rating (0 to 100), Nutsedge: Rate 500 g/ha, visual evaluation after 12 to 14 days
Procedure, shortened: as §2

corn (Zea mays) = assay: Test C preemergence; details: for Plant response rating (0 to 100), Corn: Rate 500 g/ha, visual evaluation after 12 to 14 days
Procedure, shortened: as §2

[9] = test system: pigweed (Amaranthus retroflexus); assay: Test C preemergence; details: for Plant response rating (0 to 100), Pigweed: Rate 500 g/ha, visual evaluation after 12 to 14 days
Procedure, shortened: as §2

[10] = test system: common ragweed (Ambrosia elatior); assay: Test C preemergence; details: for Plant response rating (0 to 100), Ragweed, Common: Rate 500 g/ha, visual evaluation after 12 to 14 days
Procedure, shortened: as §2

Nightshade = assay: Test C preemergence
[11] = test system: morningglory (Ipomoea hederacea); assay: Test C preemergence
Procedure, shortened: as §2

[12] = test system: giant foxtail (Setaria faberii); assay: Test C preemergence; details: for Plant response rating (0 to 100), Foxtail, Giant: Rate 500 g/ha, visual evaluation after 12 to 14 days
Procedure, shortened: as §2

[13] = test system: barnyardgrass (Echinochloa crus-galli); assay: Test B preemergence
Procedure, shortened: (§3)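 Visual injury scores, 0 = no effect to 100 = complete control, assigned against controls after 13 to 15 days in the greenhouse. Compounds formulated in non-phytotoxic solvent plus surfactant and applied to soil after planting (pre) or onto foliage of 1- to 4-leaf plants (post).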

[14] = test system: velvetleaf (Abutilon theophrasti); assay: Test B preemergence
Procedure, shortened: as §3

Sunflower = assay: Test C preemergence; details: Rate 62 g/ha, scale 0 to 100
[15] = flooded paddy test, Rate 62 g/ha
[16] = flooded paddy test, Rate 125 g/ha
[17] = Rate 125 g/ha, scale 0 to 100, 0 no effect, 100 complete control
[18] = preemergence, Rate 62 g/ha, scale 0 to 100
[19] = preemergence, Rate 250 g/ha, scale 0 to 100, 0 no effect, 100 complete control
[20] = Rate 250 g/ha, scale 0 to 100, 0 no effect, 100 complete control
[21] = Preemergence, Rate 500 g/ha, scale 0 to 100, 0 no effect, 100 complete control
[22] = preemergence, Rate 125 g/ha, scale of 0 to 100 where 0 is no effect and 100 is complete control, 13 to 15 days
[23] = flooded paddy test, Rate 250 g/ha
[24] = flooded paddy test, Rate 62 g/ha, visually evaluated after 12 to 14 days, 0 = no effect, 100 = complete control

SMILES: COc1cc(N2CCC(n3ccc(C(C)(C)C)n3)C2=O)ccc1Cl (stereo not drawn) [Compound 117]
- Flatsedge plant response rating ([1]; Rate 250 g/ha): 100
- Flatsedge plant response rating ([1]; Rate 500 g/ha): 100
- Plant response rating, Flatsedge [1, 15]: 100
- Plant response rating, Flatsedge [1, 16]: 100
- Ducksalad plant response rating ([2]; Rate 250 g/ha): 100
- Ducksalad plant response rating ([2]; Rate 500 g/ha): 100
- Plant response rating, Ducksalad [2, 15]: 0
- Plant response rating, Ducksalad [2, 16]: 100
- Rice plant response rating (rice (Oryza saliva)): 30
- Plant response rating, Rice (rice (Oryza saliva); [15]): 20
- Plant response rating, Rice (rice (Oryza saliva); [16]): 30
- Barnyardgrass plant response rating ([3]; Rate 250 g/ha): 90
- Barnyardgrass plant response rating ([3]; Rate 500 g/ha): 90
- Plant response rating, Barnyardgrass [3, 15]: 40
- Plant response rating, Barnyardgrass [3, 16]: 80
- Plant response rating, Johnsongrass [4, 17]: 50
- Plant response rating, Johnsongrass [4, 18]: 45
- Plant response rating (0 to 100), Johnsongrass ([4]; preemergence): 90
- Plant response rating, Johnsongrass [4, 19]: 50
- Plant response rating, Cupgrass, Woolly [5, 17]: 100
- Plant response rating, Cupgrass, Woolly [5, 18]: 80
- Plant response rating (0 to 100), Cupgrass, Woolly ([5]; preemergence): 100
- Plant response rating, Cupgrass, Woolly [5, 19]: 100
- Plant response rating, Surinam grass [6, 17]: 10
- Plant response rating, Surinam grass [6, 18]: 10
- Plant response rating (0 to 100), Surinam grass ([6]; preemergence): 100
- Plant response rating, Surinam grass [6, 19]: 75
- Plant response rating, Lambsquarters [7, 17]: 100
- Plant response rating, Lambsquarters [7, 18]: 100
- Plant response rating (0 to 100), Lambsquarters ([7]; preemergence): 100
- Plant response rating, Lambsquarters [7, 19]: 100
- Plant response rating, Nutsedge [8, 17]: 0
- Plant response rating, Nutsedge [8, 18]: 0
- Plant response rating (0 to 100), Nutsedge ([8]; preemergence): 0
- Plant response rating, Nutsedge [8, 19]: 0
- Plant response rating, Corn (corn (Zea mays); [17]): 30
- Plant response rating, Corn (corn (Zea mays); [18]): 0
- Plant response rating (0 to 100), Corn (corn (Zea mays); preemergence): 50
- Plant response rating, Corn (corn (Zea mays); [19]): 45
- Plant response rating, Pigweed [9, 17]: 100
- Plant response rating, Pigweed [9, 18]: 100
- Plant response rating (0 to 100), Pigweed ([9]; preemergence): 30
- Plant response rating, Pigweed [9, 19]: 100
- Plant response rating, Ragweed, Common [10, 17]: 100
- Plant response rating, Ragweed, Common [10, 18]: 100
- Plant response rating (0 to 100), Ragweed, Common ([10]; preemergence): 100
- Plant response rating, Ragweed, Common [10, 19]: 100
- Plant response rating, Nightshade (Nightshade; Rate 62 g/ha, scale 0 to 100): 100
- Plant response rating, Nightshade (Nightshade; [17]): 100
- Plant response rating, Nightshade (Nightshade; [20]): 100
- Plant response rating, Morningglory [11, 17]: 10
- Plant response rating, Morningglory [11, 18]: 0
- Plant response rating (0 to 100), Morningglory ([11]; preemergence, Rate 500 g/ha, visual evaluation after 12 to 14 days): 100
- Plant response rating, Morningglory [11, 19]: 100
- Plant response rating, Foxtail, Giant [12, 17]: 0
- Plant response rating, Foxtail, Giant [12, 18]: 100
- Plant response rating (0 to 100), Foxtail, Giant ([12]; preemergence): 100
- Plant response rating, Foxtail, Giant [12, 19]: 100
- Plant response rating, Barnyardgrass [13, 21]: 100
- Plant response rating, Barnyardgrass [13, 22]: 100
- Plant response rating, Velvetleaf [14, 21]: 100
- Plant response rating, Velvetleaf [14, 22]: 40
- Plant response rating, Sunflower (Sunflower): 35

SMILES: CCC(C)c1ccn(C2CCN(c3ccc(F)c(C(F)(F)F)c3)C2=O)n1 (stereo not drawn) [Compound 145]
- Flatsedge plant response rating ([1]; Rate 500 g/ha): 95
- Plant response rating, Flatsedge [1, 16]: 80
- Plant response rating, Flatsedge [1, 23]: 95
- Plant response rating (scale 0 to 100), Flatsedge [1, 24]: 40
- Ducksalad plant response rating ([2]; Rate 500 g/ha): 80
- Plant response rating, Ducksalad [2, 16]: 25
- Plant response rating, Ducksalad [2, 23]: 80
- Plant response rating (scale 0 to 100), Ducksalad [2, 24]: 20
- Rice plant response rating (rice (Oryza saliva)): 60
- Plant response rating, Rice (rice (Oryza saliva); [16]): 0
- Plant response rating, Rice (rice (Oryza saliva); [23]): 20
- Plant response rating (scale 0 to 100), Rice (rice (Oryza saliva); [24]): 0
- Barnyardgrass plant response rating ([3]; Rate 500 g/ha): 100
- Plant response rating, Barnyardgrass [3, 16]: 65
- Plant response rating, Barnyardgrass [3, 23]: 85
- Plant response rating (scale 0 to 100), Barnyardgrass [3, 24]: 30
- Plant response rating, Johnsongrass [4, 17]: 10
- Plant response rating, Johnsongrass [4, 18]: 0
- Plant response rating (0 to 100), Johnsongrass ([4]; preemergence): 90
- Plant response rating, Johnsongrass [4, 19]: 20
- Plant response rating, Cupgrass, Woolly [5, 17]: 100
- Plant response rating, Cupgrass, Woolly [5, 18]: 20
- Plant response rating (0 to 100), Cupgrass, Woolly ([5]; preemergence): 100
- Plant response rating, Cupgrass, Woolly [5, 19]: 100
- Plant response rating, Surinam grass [6, 17]: 50
- Plant response rating, Surinam grass [6, 18]: 0
- Plant response rating (0 to 100), Surinam grass ([6]; preemergence): 100
- Plant response rating, Surinam grass [6, 19]: 90
- Plant response rating, Lambsquarters [7, 17]: 100
- Plant response rating, Lambsquarters [7, 18]: 100
- Plant response rating (0 to 100), Lambsquarters ([7]; preemergence): 100
- Plant response rating, Lambsquarters [7, 19]: 100
- Plant response rating, Nutsedge [8, 17]: 0
- Plant response rating, Nutsedge [8, 18]: 0
- Plant response rating (0 to 100), Nutsedge ([8]; preemergence): 0
- Plant response rating, Nutsedge [8, 19]: 0
- Plant response rating, Corn (corn (Zea mays); [17]): 20
- Plant response rating, Corn (corn (Zea mays); [18]): 0
- Plant response rating (0 to 100), Corn (corn (Zea mays); preemergence): 40
- Plant response rating, Corn (corn (Zea mays); [19]): 40
- Plant response rating, Pigweed [9, 17]: 100
- Plant response rating, Pigweed [9, 18]: 100
- Plant response rating (0 to 100), Pigweed ([9]; preemergence): 100
- Plant response rating, Pigweed [9, 19]: 100
- Plant response rating, Ragweed, Common [10, 17]: 0
- Plant response rating, Ragweed, Common [10, 18]: 0
- Plant response rating (0 to 100), Ragweed, Common ([10]; preemergence): 20
- Plant response rating, Ragweed, Common [10, 19]: 0
- Plant response rating, Nightshade (Nightshade; Rate 62 g/ha, scale 0 to 100): 0
- Plant response rating, Nightshade (Nightshade; [17]): 10
- Plant response rating, Nightshade (Nightshade; [20]): 20
- Plant response rating, Morningglory [11, 17]: 100
- Plant response rating, Morningglory [11, 18]: 0
- Plant response rating, Morningglory [11, 19]: 100
- Plant response rating, Foxtail, Giant [12, 17]: 100
- Plant response rating, Foxtail, Giant [12, 18]: 100
- Plant response rating (0 to 100), Foxtail, Giant ([12]; preemergence): 100
- Plant response rating, Foxtail, Giant [12, 19]: 100
- Plant response rating, Barnyardgrass [13, 21]: 100
- Plant response rating, Barnyardgrass [13, 22]: 70
- Plant response rating, Velvetleaf [14, 21]: 0
- Plant response rating, Velvetleaf [14, 22]: 0
- Plant response rating, Sunflower (Sunflower): 0
